Experimental findings from US20220324865A1 (Bayer Aktiengesellschaft, priority 2018, published 2022) are described below.

Structures can show the parent of a compound that is named as a salt.

For this assay, the target named is T1, human EP3 receptor (Homo sapiens, UniProt P43115).
T1 construct: expressed in transfected cells; host or cells: CHO K1 (Chinese Hamster Ovary), stably co-transfected with Galpha16 and mitochondrial clytin
T1 sequence (P43115 1-390): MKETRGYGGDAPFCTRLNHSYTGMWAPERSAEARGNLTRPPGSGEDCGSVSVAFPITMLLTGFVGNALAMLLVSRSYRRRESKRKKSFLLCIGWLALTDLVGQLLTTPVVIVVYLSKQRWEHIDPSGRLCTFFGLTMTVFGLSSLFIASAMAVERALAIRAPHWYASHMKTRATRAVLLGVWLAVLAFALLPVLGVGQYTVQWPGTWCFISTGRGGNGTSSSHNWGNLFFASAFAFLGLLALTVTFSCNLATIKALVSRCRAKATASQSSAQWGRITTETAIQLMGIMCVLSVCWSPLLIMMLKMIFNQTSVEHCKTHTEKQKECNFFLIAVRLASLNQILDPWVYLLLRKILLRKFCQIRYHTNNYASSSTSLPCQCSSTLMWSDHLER
Put plainly: Cellular in vitro assay for determining EP3 receptor activity (human EP3 cell line, sulprostone-stimulated calcium luminescence). In kind it is cell-based. The settings on record: CHO cells expressing human EP3 and mitochondrial Clytin; antagonist mode, sulprostone at EC50; read-out: EP3 CHO mtCLY ANTAG IC50. An outline of the steps:
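CHO K1 cells stably expressing human EP3 with Gα16 and mitochondrial Clytin, loaded overnight with coelenterazine. Compounds added 10 min before sulprostone at its EC50; antagonism read immediately as reduced calcium-driven luminescence, quadruplicate points.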
`CC(NC(=O)c1nn2cc(-c3ccc4ccccc4c3)[nH]c(=O)c2c1C#N)c1ccc(F)cc1` (stereo not shown) [Example 3-52, 3-Cyano-N-[1-(4-fluorophenyl)ethyl]-6-(2-naphthyl)-4-oxo-5H-pyrazolo[1,5-a]pyrazine-2-carboxamide]: the IC50 (in general, the midpoint of a concentration-inhibition curve) is 2.25 nM.

On to `CN1CC(NC(=O)c2nn3cc(-c4ccc(Cl)c(C(F)F)c4)[nH]c(=O)c3c2C2CC2)(c2ccc(F)cc2)C1` [6-665], for which the IC50 is 3.1 nM.

For `Cc1cc(-c2cn3nc(C(=O)N[C@H](C)c4ccc(F)cc4)c(C4CC4)c3c(=O)[nH]2)ccc1C(F)(F)F` [Example 1-131, 3-Cyclopropyl-N-[(1R)-1-(4-fluorophenyl)ethyl]-6-[3-methyl-4-(trifluoromethyl)phenyl]-4-oxo-4,5-dihydropyrazolo[1,5-a]pyrazine-2-carboxamide], the IC50 was 5.45 nM.

Consider `Cc1cccc2ncc(-c3cn4nc(C(=O)N[C@H](C)c5ccc(F)cc5)cc4c(=O)[nH]3)cc12` [6-64], for which the IC50 was 2.5 nM.

Turning to `CC(C)(C)OC(=O)N1CC(NC(=O)c2cc3c(=O)[nH]c(-c4ccc5ccccc5c4)cn3n2)(c2ccc(F)cc2)C1` [Example 1-47, tert.-Butyl 3-(4-fluorophenyl)-3-({[6-(naphthalen-2-yl)-4-oxo-4,5-dihydropyrazolo[1,5-a]pyrazin-2-yl]carbonyl}amino)azetidine-1-carboxylate], the half-maximal inhibitory concentration (IC50) stood at 4.65 nM.

With `Cc1ccc(-c2cn3nc(C(=O)NC(CO)C(F)(F)F)c(C4CC4)c3c(=O)[nH]2)cc1C(F)(F)F` (single isomer, unassigned) [6-249], the IC50 was determined as 3 nM.

On to `O=C(N[C@H](CCO)c1ccc(F)cc1)c1cc2c(=O)[nH]c(-c3ccc4ccccc4c3)cn2n1` [Example 1-52, N-[(1R)-1-(4-Fluorophenyl)-3-hydroxpropyl]-6-(naphthalen-2-yl)-4-oxo-4,5-dihydropyrazolo-[1,5-a]pyrazine-2-carboxamide], for which the 50% inhibitory concentration (IC50) came out at 6.95 nM.

`CC(C)(O)[C@@H](NC(=O)c1nn2cc(-c3cc(F)c(Cl)cc3F)[nH]c(=O)c2c1C1CC1)c1ccc(F)cc1` [6-584]: the half-inhibitory concentration (IC50) stood at 7.4 nM.

As to `Cc1cc(-c2cn3nc(C(=O)NC4(c5ccc(F)cc5)CN(CC(F)F)C4)c(C(F)(F)F)c3c(=O)[nH]2)ccc1Cl` [6-239], the IC50 turned out to be 3.1 nM.

Turning to `Cc1cc(-c2cn3nc(C(=O)NCC(C)(N)C(F)(F)F)c(C4CC4)c3c(=O)[nH]2)ccc1Cl` (single isomer, unassigned) [6-321], the IC50 is 1.7 nM.

Consider `Cc1ccc(-c2cn3nc(C(=O)N[C@@H](c4ccc(F)cc4)C(F)(F)CO)c(C(F)(F)C(F)(F)F)c3c(=O)[nH]2)cc1C` [6-489], for which the IC50 was 0.41 nM.

Take `Cc1cccc2ncc(-c3cn4nc(C(=O)NCc5cccc(CN(C)C)c5)c(C(C)C)c4c(=O)[nH]3)cc12` [Example 4-2, N-({3-[(Dimethylamino)methyl]phenyl}methyl)-6-(5-methylquinolin-3-yl)-4-oxo-3-(propan-2-yl)-4,5-dihydropyrazolo[1,5-a]pyrazine-2-carboxamide]: the IC50 was determined as 2.8 nM.

Turning to `COc1ccc2c(c1)CCCC2NC(=O)c1nn2cc(-c3cnc4cccc(C)c4c3)[nH]c(=O)c2c1C(C)C` (stereo not shown) [Example 4-64, 3-Isopropyl-N-(6-methoxy-1,2,3,4-tetrahydronaphthalen-1-yl)-6-(5-methylquinolin-3-yl)-4-oxo-4,5-dihydropyrazolo[1,5-a]pyrazine-2-carboxamide], the IC50 stood at 2.55 nM.

Regarding `O=C(NC(c1ccc(F)cc1)C1(O)CC1)c1nn2cc(-c3ccc(Cl)c(Cl)c3)[nH]c(=O)c2c1C1CC1` (single isomer, unassigned) [6-424], the IC50 worked out at 0.68 nM.

For `Cc1c(C(=O)NC(C)CC2CC2)nn2c(C)c(-c3ccc4ccccc4c3)[nH]c(=O)c12` (stereo not shown) [Example 3-10, N-(1-Cyclopropylpropan-2-yl)-3,7-dimethyl-6-(2-naphthyl)-4-oxo-4,5-dihydropyrazolo[1,5-a]pyrazine-2-carboxamide], the IC50 came to 2.75 nM.

Regarding `O=C(N[C@H](CCO)c1ccc(F)cc1)c1nn2cc(-c3ccc4ccccc4c3)[nH]c(=O)c2c1C(F)(F)F` [Example 1-17, N-[(1R)-1-(4-Fluorophenyl)-3-hydroxpropyl]-6-(naphthalen-2-yl)-4-oxo-3-(trifluoromethyl)-4,5-dihydropyrazolo[1,5-a]pyrazine-2-carboxamide], the IC50 was 0.575 nM.

Regarding `O=C(N[C@H](CN1CC(F)C1)c1ccccc1)c1cc2c(=O)[nH]c(-c3ccc4ccccc4c3)cn2n1` [6-545], the IC50 was found to be 0.77 nM.

With `Cc1ccnc(C(C)NC(=O)c2nn3cc(-c4cnc5cccc(C)c5c4)[nH]c(=O)c3c2C(C)C)n1` (stereo not shown) [Example 4-47, 3-Isopropyl-N-[1-(4-methylpyrimidin-2-yl)ethyl]-6-(5-methyl-3-quinolyl)-4-oxo-5H-pyrazolo[1,5-a]pyrazine-2-carboxamide], the IC50 came to 3.1 nM.

Consider `CN1CC(NC(=O)c2nn3cc(-c4ccc(Cl)cc4)[nH]c(=O)c3c2C2CC2)(c2ccc(F)cc2)C1` [6-673], for which the IC50 is 3.3 nM.

Take `CC[C@H](C)NC(=O)c1nn2cc(-c3ccc(C)c(Cl)c3)[nH]c(=O)c2c1C(F)(F)F` [6-190]: the IC50 was determined as 2.25 nM.

For `Cc1ccc(-c2cn3nc(C(=O)N[C@H](CCO)c4ccc(F)cc4)c(C(F)(F)F)c3c(=O)[nH]2)cc1C` [Example 1-94, 6-(3,4-Dimethylphenyl)-N-[(1R)-1-(4-fluorophenyl)-3-hydroxpropyl]-4-oxo-3-(trifluoromethyl)-4,5-dihydropyrazolo[1,5-a]pyrazine-2-carboxamide], the IC50 worked out at 0.765 nM.

In the case of `COc1ccc(CCNC(=O)c2cc3c(=O)[nH]c(-c4ccc5c(c4)OCCO5)cn3n2)cc1OC` [6-77], the IC50 came to 2.28 nM.

For the molecule `N#Cc1c(C(=O)N[C@@H]2CCCc3ccccc32)nn2cc(-c3ccc4ccccc4c3)[nH]c(=O)c12` [Example 3-48, 3-Cyano-6-(naphthalen-2-yl)-4-oxo-N-[(7R)-1,2,3,4-tetrahydronaphthalen-1-yl]-4,5-dihydropyrazolo[1,5-a]pyrazine-2-carboxamide], the IC50 came to 5.5 nM.

In the case of `Cc1ccc(-c2cn3nc(C(=O)N[C@H]4CCOC4)c(C(F)(F)F)c3c(=O)[nH]2)cc1Cl` [6-186], the IC50 is 5.35 nM.

With `N#Cc1c(C(=O)NC(CO)c2cc(Cl)cc(Cl)c2)nn2cc(-c3ccc4ccccc4c3)[nH]c(=O)c12` (stereo not shown) [Example 3-76, 3-Cyano-N-[1-(3,5-dichlorophenyl)-2-hydroxyethyl]-6-(2-naphthyl)-4-oxo-5H-pyrazolo[1,5-a]pyrazine-2-carboxamide], the IC50 was 4.35 nM.

On to `CCN1CC(NC(=O)c2cc3c(=O)[nH]c(-c4ccc5ccccc5c4)cn3n2)(c2ccc(F)cc2)C1` [Example 1-145, N-[3-(4-Fluorophenyl)-1-ethylazetidin-3-yl]-6-(naphthalen-2-yl)-4-oxo-4,5-dihydropyrazolo[1,5-a]-pyrazine-2-carboxamide formic acid salt], for which the IC50 is 7.05 nM.

As for `Cc1ccc(-c2cn3nc(C(=O)N[C@H](C)C4CC4)c(C4CC4)c3c(=O)[nH]2)cc1Cl` [6-283], the IC50 turned out to be 0.41 nM.

On to `Cc1cc(-c2cn3nc(C(=O)N[C@H](C)C4CC4)c(C(C)C)c3c(=O)[nH]2)ccc1Cl` [6-609], for which the IC50 was 1.5 nM.

Regarding `C[C@@H](NC(=O)c1cc2c(=O)[nH]c(-c3ccc4c(c3)COCC4)cn2n1)c1ccc(F)cc1` [Example 1-112, 6-(3,4-Dihydro-1H-2-benzopyran-7-yl)-N-[(1R)-1-(4-fluorophenyl)ethyl]-4-oxo-4,5-dihydropyrazolo[1,5-a]pyrazine-2-carboxamide], the IC50 worked out at 3.35 nM.

Regarding `Cc1ccc(-c2cn3nc(C(=O)N[C@@H](c4ccc(F)cc4)C(C)(C)O)c(CC(F)(F)F)c3c(=O)[nH]2)cc1F` [6-633], the half-maximal inhibitory concentration (IC50) is 3.5 nM.

For `COCc1c(C(=O)NC2(c3ccc(F)cc3)CN(C)C2)nn2cc(-c3ccc4ccccc4c3)[nH]c(=O)c12` [Example 1-21, N-[3-(4-Fluorophenyl)-1-methylazetidin-3-yl]-3-(methoxymethyl)-6-(naphthalen-2-yl)-4-oxo-4,5-dihydropyrazolo[1,5-a]pyrazine-2-carboxamide], the IC50 worked out at 1.25 nM.

Consider `Cc1ccc(-c2cn3nc(C(=O)N[C@@H](c4ccc(F)cc4)C(F)(F)CO)c(C(F)(F)C(F)(F)F)c3c(=O)[nH]2)cc1F` [6-491], for which the IC50 was 0.58 nM.

`CC(C)(O)[C@@H](NC(=O)c1nn2cc(-c3ccc(Cl)c(F)c3)[nH]c(=O)c2c1C1CC1(F)F)c1ccc(F)cc1` (stereo partly shown) [6-564]: the IC50 came out at 4.05 nM.

In the case of `Cc1ccc(-c2cn3nc(C(=O)Nc4cccc(O)c4)c(C(F)(F)F)c3c(=O)[nH]2)cc1F` [6-144], the IC50 was 3.5 nM.

For the molecule `Cc1ccc(-c2cn3nc(C(=O)NC4(c5ccc(F)cc5)CN(C)C4)c(C(C)C)c3c(=O)[nH]2)cc1C` [Example 1-91, 6-(3,4-Dimethylphenyl)-N-[3-(4-fluorophenyl)-1-methylazetidin-3-yl]-4-oxo-3-(propan-2-yl)-4,5-dihydropyrazolo[1,5-a]pyrazine-2-carboxamide], the half-maximal inhibitory concentration (IC50) came out at 0.915 nM.

Take `Cc1ccc2c(c1)C(NC(=O)c1nn3cc(-c4cnc5cccc(C)c5c4)[nH]c(=O)c3c1C(C)C)CC(C)(C)O2` (stereo not shown) [Example 4-84, 3-Isopropyl-6-(5-methylquinolin-3-yl)-4-oxo-N-(2,2,6-trimethyl-3,4-dihydro-2H-chromen-4-yl)-4,5-dihydropyrazolo[1,5-a]pyrazine-2-carboxamide]: the IC50 is 6.95 nM.

On to `O=C(N[C@@H](c1ccc(F)cc1)C(F)(F)CO)c1nn2cc(-c3cc(Cl)c(Cl)cc3F)[nH]c(=O)c2c1C1CC1` [6-582], for which the IC50 was found to be 2.65 nM.
